Biological target: PDE4D3 (Homo sapiens, UniProt Q08499)
Sequence (Q08499 1-673 isoform Q08499-2): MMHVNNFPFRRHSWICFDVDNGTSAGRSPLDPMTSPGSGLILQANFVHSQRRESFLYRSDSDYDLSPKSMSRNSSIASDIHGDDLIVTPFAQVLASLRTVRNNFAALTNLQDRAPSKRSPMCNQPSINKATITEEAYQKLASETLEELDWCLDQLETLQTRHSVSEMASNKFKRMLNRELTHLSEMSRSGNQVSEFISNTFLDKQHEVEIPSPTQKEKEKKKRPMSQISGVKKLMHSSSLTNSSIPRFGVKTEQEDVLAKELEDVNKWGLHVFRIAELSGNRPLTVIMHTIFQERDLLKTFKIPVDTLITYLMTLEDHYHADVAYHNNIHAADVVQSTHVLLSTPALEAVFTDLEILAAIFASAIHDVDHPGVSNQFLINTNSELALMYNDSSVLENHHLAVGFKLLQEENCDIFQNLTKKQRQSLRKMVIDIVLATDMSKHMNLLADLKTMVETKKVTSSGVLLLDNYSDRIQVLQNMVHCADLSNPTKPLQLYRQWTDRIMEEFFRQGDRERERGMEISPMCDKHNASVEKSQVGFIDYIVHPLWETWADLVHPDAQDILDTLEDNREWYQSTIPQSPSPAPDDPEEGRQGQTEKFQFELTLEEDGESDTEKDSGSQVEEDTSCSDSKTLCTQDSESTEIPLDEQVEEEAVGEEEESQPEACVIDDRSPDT

| SMILES | EC50 [µM] |
| --- | --- |
| COc1cccc(-c2cc(Cn3cnc(N)n3)cnc2OC)c1 [Example 221, 1-{[6-Methoxy-5-(3-methoxyphenyl)pyridin-3-yl]methyl}-1H-1,2,4-triazol-3-amine] | 0.1 to 1 |
| FC(F)Oc1ncc(Cn2cncn2)cc1-c1cccc(OC(F)(F)F)c1 [Example 176, 2-(Difluoromethoxy)-5-(1H-1,2,4-triazol-1-ylmethyl)-3-[3-(trifluoromethoxy)phenyl]pyridine] | 0.1 to 1 |
| CCOc1ncc(Cc2cnc(C(N)=O)nc2)cc1-c1cccc(OC(F)F)c1 [Example 119, 5-({5-[3-(Difluoromethoxy)phenyl]-6-ethoxypyridin-3-yl}methyl)pyrimidine-2-carboxamide] | < 0.1 |
| COc1ncc(Cc2cn[nH]c2)cc1-c1cccc(Cl)c1 [Example 80, 3-(3-Chlorophenyl)-2-methoxy-5-(1H-pyrazol-4-ylmethyl)pyridine] | < 0.1 |
| O=C(O)c1ccc(Cc2cnc(OC(F)F)c(-c3cccc(Cl)c3)c2)cc1 [Example 280, 4-{[5-(3-Chlorophenyl)-6-(difluoromethoxy)pyridin-3-yl]methyl}benzoic acid] | 1 to 10 |
| COc1ncc(Cn2cncn2)cc1-c1cccc(OC(F)(F)F)c1 [Example 137, 2-Methoxy-5-(1H-1,2,4-triazol-1-ylmethyl)-3-[3-(trifluoromethoxy)phenyl]pyridine] | 0.1 to 1 |
| COc1ncc(Cc2c(C)noc2C)nc1-c1cccc(Cl)c1 [Example 98, 3-(3-Chlorophenyl)-5-[(dimethyl-1,2-oxazol-4-yl)methyl]-2-methoxypyrazine] | 1 to 10 |
| COc1ncc(Cc2cnc(OC)c(-c3cccc(Cl)c3)c2)cc1C [Example 67, 3-(3-Chlorophenyl)-2-methoxy-5-[(6-methoxy-5-methylpyridin-3-yl)methyl]pyridine] | 0.1 to 1 |
| FC(F)Oc1ncc(Cc2cncs2)cc1-c1cccc(Cl)c1 [Example 68, 3-(3-Chlorophenyl)-2-(difluoromethoxy)-5-(1,3-thiazol-5-ylmethyl)pyridine] | < 0.1 |
| N#Cc1ncn(Cc2cnc(OC(F)F)c(-c3cccc(Cl)c3)c2)n1 [Example 156, 1-{[5-(3-Chlorophenyl)-6-(difluoromethoxy)pyridin-3-yl]methyl}-1H-1,2,4-triazole-3-carbonitrile] | 1 to 10 |
| Cc1ccc(Cc2cnc(OC(F)F)c(-c3cccc(Cl)c3)c2)cn1 [Example 72, 3-(3-Chlorophenyl)-2-(difluoromethoxy)-5-[(6-methylpyridin-3-yl)methyl]pyridine] | < 0.1 |
| COc1ncc(Cn2cnc(C(F)(F)F)c2)cc1-c1cccc(Cl)c1 [Example 149, 3-(3-Chlorophenyl)-2-methoxy-5-{[4-(trifluoromethyl)-1H-imidazol-1-yl]methyl}pyridine] | 1 to 10 |
| CCOc1ncc(Cn2ncnc2CO)nc1-c1cccc(OC(F)F)c1 [Example 209, [1-({6-[3-(Difluoromethoxy)phenyl]-5-ethoxypyrazin-2-yl}methyl)-1H-1,2,4-triazol-5-yl]methanol] | 1 to 10 |
| COc1ncc(Cn2cnc(C(C)(C)O)n2)cc1-c1cccc(Cl)c1 [Example 247, 2-(1-{[5-(3-Chlorophenyl)-6-methoxypyridin-3-yl]methyl}-1H-1,2,4-triazol-3-yl)propan-2-ol] | 1 to 10 |
| O=C(O)c1ccc(Cc2cnc(OC(F)F)c(-c3cccc(Cl)c3)c2)cn1 [Example 54, 5-{[5-(3-Chlorophenyl)-6-(difluoromethoxy)pyridin-3-yl]methyl}pyridine-2-carboxylic acid] | 1 to 10 |
| CCOc1ncc(Cn2cnc(C(F)(F)F)n2)cc1-c1cccc(Cl)c1 [Example 152, 3-(3-Chlorophenyl)-2-ethoxy-5-{[3-(trifluoromethyl)-1H-1,2,4-triazol-1-yl]methyl}pyridine] | 0.1 to 1 |
| CCOc1ncc(Cc2cnc(C(N)=O)nc2)nc1-c1cccc(Cl)c1 [Example 126, 5-{[6-(3-Chlorophenyl)-5-ethoxypyrazin-2-yl]methyl}pyrimidine-2-carboxamide] | < 0.1 |
| COC(=O)c1ncnn1Cc1cnc(OC)c(-c2cccc(Cl)c2)c1 [Example 140, Methyl 1-{[5-(3-chlorophenyl)-6-methoxypyridin-3-yl]methyl}-1H-1,2,4-triazole-5-carboxylate] | > 10 |

Next, values leading:

| EC50 [µM] | SMILES |
| --- | --- |
| 0.1 to 1 | COc1ncc(Cn2cc(C(N)=O)cn2)cc1-c1cccc(Cl)c1 [Example 271, 1-{[5-(3-Chlorophenyl)-6-methoxypyridin-3-yl]methyl}-1H-pyrazole-4-carboxamide] |
| 0.1 to 1 | COc1ncc(Cc2cnc(C(N)=O)nc2)cc1-c1ccnc(OC(F)F)c1 [Example 120, 5-({5-[2-(Difluoromethoxy)pyridin-4-yl]-6-methoxypyridin-3-yl}methyl)pyrimidine-2-carboxamide] |
| < 0.1 | FC(F)Oc1ncc(Cn2cncn2)cc1-c1cccc(Cl)c1 [Example 131, 3-(3-Chlorophenyl)-2-(difluoromethoxy)-5-(1H-1,2,4-triazol-1-ylmethyl)pyridine] |
| > 10 | COc1ncc(Cn2cc(C(=O)O)cn2)cc1-c1cccc(Cl)c1 [Example 270, 1-{[5-(3-Chlorophenyl)-6-methoxypyridin-3-yl]methyl}-1H-pyrazole-4-carboxylic acid] |
| < 0.1 | COc1ncc(Cn2ccnc2)cc1-c1cccc(Cl)c1 [Example 173, 3-(3-Chlorophenyl)-5-(1H-imidazol-1-ylmethyl)-2-methoxypyridine] |
| 0.1 to 1 | COc1ncc(Cn2cc(Cl)cn2)cc1-c1cccc(OC(F)F)c1 [Example 167, 5-[(4-Chloro-1H-pyrazol-1-yl)methyl]-3-[3-(difluoromethoxy)phenyl]-2-methoxypyridine] |
| > 10 | COc1ncc(Cn2cncn2)cc1-c1cncc(C)c1 [Example 6, 2-Methoxy-3-(5-methylpyridin-3-yl)-5-(1H-1,2,4-triazol-1-ylmethyl)pyridine] |
| 1 to 10 | COc1ncc(Cn2cnc(CO)n2)nc1-c1cccc(Cl)c1 [Example 199, (1-{[6-(3-Chlorophenyl)-5-methoxypyrazin-2-yl]methyl}-1H-1,2,4-triazol-3-yl)methanol] |
| 1 to 10 | COc1ncc(C(C)(O)c2ccc(F)cc2)cc1-c1cccc(Cl)c1 (stereo not shown) [Example 15, 1-[5-(3-Chlorophenyl)-6-methoxypyridin-3-yl]-1-(4-fluorophenyl)ethan-1-ol] |
| 0.1 to 1 | CCOc1ncc(Cn2cnc(COC)n2)nc1-c1cccc(OC(F)F)c1 [Example 189, 3-[3-(Difluoromethoxy)phenyl]-2-ethoxy-5-{[3-(methoxymethyl)-1H-1,2,4-triazol-1-yl]methyl}pyrazine] |
| < 0.1 | FC(F)Oc1ncc(Cc2cnccn2)cc1-c1cccc(Cl)c1 [Example 110, 2-{[5-(3-Chlorophenyl)-6-(difluoromethoxy)pyridin-3-yl]methyl}pyrazine] |
| < 0.1 | CCOc1ncc(Cc2ccc(C(N)=O)nc2)nc1-c1cccc(OC(F)F)c1 [Example 124, 5-({6-[3-(Difluoromethoxy)phenyl]-5-ethoxypyrazin-2-yl}methyl)pyridine-2-carboxamide] |
| 1 to 10 | CCOc1ncc(Cn2cnc(C3CC3)n2)nc1-c1cccc(OC(F)F)c1 [Example 186, 5-[(3-Cyclopropyl-1H-1,2,4-triazol-1-yl)methyl]-3-[3-(difluoromethoxy)phenyl]-2-ethoxypyrazine] |
| < 0.1 | COc1ncc(Cc2cnc(C(C)(C)O)nc2)cc1-c1cccc(OC(F)F)c1 [Example 48, 2-[5-({5-[3-(Difluoromethoxy)phenyl]-6-methoxypyridin-3-yl}methyl)pyrimidin-2-yl]propan-2-ol] |
| 1 to 10 | COC(=O)c1ncn(Cc2cnc(OC)c(-c3cccc(OC(F)F)c3)n2)n1 [Example 196, Methyl 1-({6-[3-(difluoromethoxy)phenyl]-5-methoxypyrazin-2-yl}methyl)-1H-1,2,4-triazole-3-carboxylate] |
| 0.1 to 1 | Nc1ncc(Cc2cnc(OC(F)F)c(-c3cccc(OC4COC4)c3)c2)cn1 [Example 43, 5-{[6-(Difluoromethoxy)-5-[3-(oxetan-3-yloxy)phenyl]pyridin-3-yl]methyl}pyrimidin-2-amine] |
| 1 to 10 | COc1ncc(Cc2ccnc(C(N)=O)c2)cc1-c1cccc(Cl)c1 [Example 63, 4-{[5-(3-Chlorophenyl)-6-methoxypyridin-3-yl]methyl}pyridine-2-carboxamide] |
| 1 to 10 | COc1ncc(Cn2cnc(N)n2)cc1-c1cccc(OC2CC2)c1 [Example 225, 1-{[5-(3-Cyclopropoxyphenyl)-6-methoxypyridin-3-yl]methyl}-1H-1,2,4-triazol-3-amine] |
| 0.1 to 1 | COc1nc(C)c(Cn2cncn2)cc1-c1cccc(Cl)c1 [Example 112, 3-(3-Chlorophenyl)-2-methoxy-6-methyl-5-(1H-1,2,4-triazol-1-ylmethyl)pyridine] |
| 0.1 to 1 | CC(c1cnc(OC(F)F)c(-c2cccc(Cl)c2)c1)n1cncn1 (stereo not shown) [Example 150, 3-(3-Chlorophenyl)-2-(difluoromethoxy)-5-[1-(1H-1,2,4-triazol-1-yl)ethyl]pyridine] |
| 1 to 10 | COc1ncc(Cn2cc(NC(C)=O)cn2)cc1-c1cccc(Cl)c1 [Example 172, N-(1-{[5-(3-Chlorophenyl)-6-methoxypyridin-3-yl]methyl}-1H-pyrazol-4-yl)acetamide] |
| < 0.1 | COc1ncc(Cn2cnc(N)n2)cc1-c1ccnc(OC(F)F)c1 [Example 229, 1-({5-[2-(Difluoromethoxy)pyridin-4-yl]-6-methoxypyridin-3-yl}methyl)-1H-1,2,4-triazol-3-amine] |
| 0.1 to 1 | COc1ncc(Cn2nccc2N)cc1-c1cccc(OC(F)F)c1 [Example 233, 1-({5-[3-(Difluoromethoxy)phenyl]-6-methoxypyridin-3-yl}methyl)-1H-pyrazol-5-amine] |
| 0.1 to 1 | COc1ncc(Cn2ncnc2C(F)(F)F)cc1-c1cccc(OC(F)F)c1 [Example 160, 3-[3-(Difluoromethoxy)phenyl]-2-methoxy-5-{[5-(trifluoromethyl)-1H-1,2,4-triazol-1-yl]methyl}pyridine] |
| < 0.1 | COc1ccc(Cc2cnc(OC)c(-c3cccc(Cl)c3)c2)cn1 [Example 32, 3-(3-Chlorophenyl)-2-methoxy-5-[(6-methoxypyridin-3-yl)methyl]pyridine] |

Reference: patent US9120770B2, “Substituted pyridine and pyrazine compounds as PDE4 inhibitors” (DART NEUROSCIENCE (CAYMAN) LTD., priority 2013, dated 2015)
